In the supplement of paper PMC10307832 one finds relative viability data, which are given here for eight cell lines.

Common to all, as to assay: relative viability (nuclei count vs DMSO), 5 days (fraction); higher = more cells survive
Compound in assay [1]: C[As](C)SC[C@H](NC(=O)CC[C@H](N)C(=O)O)C(=O)NCC(=O)O [Darinaparsin] + CC1(C)CCC(c2ccc(Cl)cc2)=C(CN2CCN(c3ccc(C(=O)NS(=O)(=O)c4ccc(N[C@H](CCN5CCOCC5)CSc5ccccc5)c(S(=O)(=O)C(F)(F)F)c4)cc3)CC2)C1 [Navitoclax] (partner 0.5 µM)
Summed up: (§1)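 Lung cancer cell lines were seeded in 1536-well plates and dosed by pin tool the next day, with either a single drug or a fixed anchor-drug dose combined with five library-drug doses (not always all listed) spaced in √10 steps. Five days later, one step fixed the cells and stained their nuclei (final 0.05% Triton X-100, 1% formaldehyde, 1 ug/ml Hoechst), and nuclei were counted on 4× images. Relative viability is the nuclei count in treated wells divided by the count in vehicle wells, and each value is the median of duplicate plates.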

Compound in the assay “Darinaparsin + Dasatinib”: C[As](C)SC[C@H](NC(=O)CC[C@H](N)C(=O)O)C(=O)NCC(=O)O [Darinaparsin] + Cc1nc(Nc2ncc(C(=O)Nc3c(C)cccc3Cl)s2)cc(N2CCN(CCO)CC2)n1 [Dasatinib] (partner 0.075 µM)
In outline:
as §1

Compound in the assay “Darinaparsin + Foretinib”: C[As](C)SC[C@H](NC(=O)CC[C@H](N)C(=O)O)C(=O)NCC(=O)O [Darinaparsin] + COc1cc2c(Oc3ccc(NC(=O)C4(C(=O)Nc5ccc(F)cc5)CC4)cc3F)ccnc2cc1OCCCN1CCOCC1 [Foretinib] (partner 0.25 µM)
In outline:
as §1

Compound in assay [2]: C[As](C)SC[C@H](NC(=O)CC[C@H](N)C(=O)O)C(=O)NCC(=O)O [Darinaparsin] + Nc1nc2[nH]cc(CCc3ccc(C(=O)N[C@@H](CCC(=O)O)C(=O)O)cc3)c2c(=O)[nH]1 [Pemetrexed] (partner 0.2 µM)
In outline:
as §1

With NCI-H1975, the relative viability turned out to be 1.26 in assay [1] (first compound 0.08 µM); 1.15 in assay [1] (first compound 0.8 µM); 1.11 in assay [1] (first compound 2.53 µM); 1.45 in assay [1] (first compound 8 µM); 0.42 with Darinaparsin + Dasatinib (first compound 0.08 µM); 0.404 with Darinaparsin + Dasatinib (first compound 0.8 µM). Further, the relative viability in the assay with Darinaparsin + Dasatinib (first compound 2.53 µM) came out at 0.388; in the assay with Darinaparsin + Dasatinib (first compound 8 µM), 0.386; in the assay with Darinaparsin + Foretinib (first compound 0.08 µM) it was 1.13; with Darinaparsin + Foretinib (first compound 0.8 µM) it was 0.994; in the assay with Darinaparsin + Foretinib (first compound 2.53 µM), 0.975; in the assay with Darinaparsin + Foretinib (first compound 8 µM), 1.12. The relative viability in assay [2] (first compound 0.08 µM) is 0.328; in assay [2] (first compound 0.8 µM) it was 0.301; in assay [2] (first compound 2.53 µM) it was 0.291; in assay [2] (first compound 8 µM), 0.319.
Regarding EPLC-272H, the relative viability was found to be 1.26 in assay [1] (first compound 0.08 µM); 1.37 in assay [1] (first compound 0.8 µM); 1.07 in assay [1] (first compound 2.53 µM); 0.983 in assay [1] (first compound 8 µM); 0.275 with Darinaparsin + Dasatinib (first compound 0.8 µM); 0.223 in the assay with Darinaparsin + Dasatinib (first compound 2.53 µM). For the same cell line, the relative viability with Darinaparsin + Dasatinib (first compound 8 µM) stood at 0.371; in the assay with Darinaparsin + Foretinib (first compound 0.8 µM) it was 0.658; with Darinaparsin + Foretinib (first compound 2.53 µM) it was 0.619; with Darinaparsin + Foretinib (first compound 8 µM), 0.814; in assay [2] (first compound 0.08 µM), 0.319; in assay [2] (first compound 0.8 µM) it was 0.292. For the same cell line, the relative viability in assay [2] (first compound 2.53 µM) was found to be 0.321; in assay [2] (first compound 8 µM) it was 0.293.
On to HCC-15, for which the relative viability was 0.893 in assay [1] (first compound 0.08 µM); 0.7 in assay [1] (first compound 0.8 µM); 0.651 in assay [1] (first compound 2.53 µM); 0.83 in assay [1] (first compound 8 µM); 0.675 with Darinaparsin + Dasatinib (first compound 0.08 µM); 0.562 with Darinaparsin + Dasatinib (first compound 0.8 µM). Moreover, the relative viability is 0.577 in the assay with Darinaparsin + Dasatinib (first compound 2.53 µM); 0.628 with Darinaparsin + Dasatinib (first compound 8 µM); 1.31 with Darinaparsin + Foretinib (first compound 0.08 µM); 1 with Darinaparsin + Foretinib (first compound 0.8 µM); 0.98 with Darinaparsin + Foretinib (first compound 2.53 µM); 1.26 with Darinaparsin + Foretinib (first compound 8 µM). The relative viability turned out to be 0.223 in assay [2] (first compound 0.08 µM), 0.221 in assay [2] (first compound 0.8 µM), 0.211 in assay [2] (first compound 2.53 µM) and 0.213 in assay [2] (first compound 8 µM).
In the case of COR-L 105, the relative viability was 0.883 in assay [1] (first compound 0.08 µM); 0.709 in assay [1] (first compound 0.8 µM); 0.82 in assay [1] (first compound 8 µM); 0.32 with Darinaparsin + Dasatinib (first compound 0.08 µM); 0.31 with Darinaparsin + Dasatinib (first compound 0.8 µM); 0.309 with Darinaparsin + Dasatinib (first compound 2.53 µM). The relative viability worked out at 0.277 in the assay with Darinaparsin + Dasatinib (first compound 8 µM); 1.12 in the assay with Darinaparsin + Foretinib (first compound 0.08 µM); 1.2 with Darinaparsin + Foretinib (first compound 0.8 µM); 1.1 in the assay with Darinaparsin + Foretinib (first compound 2.53 µM); 1.04 with Darinaparsin + Foretinib (first compound 8 µM); 1.39 in assay [2] (first compound 0.08 µM). In addition, the relative viability in assay [2] (first compound 0.8 µM) was 1.21; in assay [2] (first compound 2.53 µM) it was 0.913; in assay [2] (first compound 8 µM), 1.27.
On to NCI-H1915, for which the relative viability in assay [1] (first compound 0.08 µM) came to 0.88; in assay [1] (first compound 0.8 µM), 0.82; in assay [1] (first compound 2.53 µM) it was 0.771; in assay [1] (first compound 8 µM) it was 0.812; with Darinaparsin + Dasatinib (first compound 0.08 µM), 0.329; with Darinaparsin + Dasatinib (first compound 0.8 µM), 0.32. The relative viability with Darinaparsin + Dasatinib (first compound 2.53 µM) was 0.317; with Darinaparsin + Dasatinib (first compound 8 µM), 0.323; in the assay with Darinaparsin + Foretinib (first compound 0.08 µM), 1.2; in the assay with Darinaparsin + Foretinib (first compound 0.8 µM) it was 1.08; in the assay with Darinaparsin + Foretinib (first compound 2.53 µM) it was 0.958; with Darinaparsin + Foretinib (first compound 8 µM), 1.25. Besides, the relative viability in assay [2] (first compound 0.08 µM) was determined as 0.495; in assay [2] (first compound 0.8 µM), 0.446; in assay [2] (first compound 2.53 µM), 0.494; in assay [2] (first compound 8 µM) it was 0.662.
For the cell line NCI-H2347, the relative viability in assay [1] (first compound 0.08 µM) was 0.77; in assay [1] (first compound 0.8 µM), 0.777; in assay [1] (first compound 2.53 µM), 0.748; in assay [1] (first compound 8 µM), 0.707; in the assay with Darinaparsin + Dasatinib (first compound 0.08 µM), 0.286; in the assay with Darinaparsin + Dasatinib (first compound 2.53 µM), 0.306. The relative viability in the assay with Darinaparsin + Dasatinib (first compound 8 µM) was found to be 0.289; in the assay with Darinaparsin + Foretinib (first compound 0.08 µM), 0.859; with Darinaparsin + Foretinib (first compound 0.8 µM), 1.01; in the assay with Darinaparsin + Foretinib (first compound 2.53 µM) it was 0.994; in the assay with Darinaparsin + Foretinib (first compound 8 µM), 1.05; in assay [2] (first compound 0.08 µM), 0.444. Besides, the figures for the relative viability in assay [2] (first compound 0.8 µM), in assay [2] (first compound 2.53 µM) and in assay [2] (first compound 8 µM) were 0.396, 0.408 and 0.477, respectively.
For EKVX, the relative viability in assay [1] (first compound 0.08 µM) stood at 1.14; in assay [1] (first compound 0.8 µM), 0.825; in assay [1] (first compound 2.53 µM) it was 0.918; in assay [1] (first compound 8 µM), 1.15; with Darinaparsin + Dasatinib (first compound 0.08 µM), 0.504; with Darinaparsin + Dasatinib (first compound 0.8 µM), 0.488. Moreover, the relative viability with Darinaparsin + Dasatinib (first compound 2.53 µM) is 0.53; with Darinaparsin + Dasatinib (first compound 8 µM), 0.512; with Darinaparsin + Foretinib (first compound 0.08 µM), 0.835; with Darinaparsin + Foretinib (first compound 0.8 µM), 0.445; in the assay with Darinaparsin + Foretinib (first compound 2.53 µM), 0.743; with Darinaparsin + Foretinib (first compound 8 µM), 0.786. In addition, the relative viability was found to be 0.458 in assay [2] (first compound 0.08 µM), 0.385 in assay [2] (first compound 0.8 µM), 0.388 in assay [2] (first compound 2.53 µM) and 0.412 in assay [2] (first compound 8 µM).
As to LC-2-ad, the relative viability in assay [1] (first compound 0.08 µM) was 0.551; in assay [1] (first compound 0.8 µM), 0.324; in assay [1] (first compound 2.53 µM), 0.421; in assay [1] (first compound 8 µM) it was 0.487; in the assay with Darinaparsin + Dasatinib (first compound 0.08 µM), 0.683; in the assay with Darinaparsin + Dasatinib (first compound 0.8 µM), 0.628. Besides, the relative viability in the assay with Darinaparsin + Dasatinib (first compound 2.53 µM) stood at 0.454; with Darinaparsin + Dasatinib (first compound 8 µM) it was 0.466; in the assay with Darinaparsin + Foretinib (first compound 0.08 µM) it was 0.949; with Darinaparsin + Foretinib (first compound 0.8 µM), 1.02; with Darinaparsin + Foretinib (first compound 2.53 µM), 0.987; with Darinaparsin + Foretinib (first compound 8 µM), 0.836. The relative viability was 0.283 in assay [2] (first compound 0.08 µM), 0.272 in assay [2] (first compound 0.8 µM), 0.27 in assay [2] (first compound 2.53 µM) and 0.289 in assay [2] (first compound 8 µM).
